Data as given in PMC3789174 (Cell Death & Disease, 2013).

Tested on: PBMCs from CLL patients
Test: Peptide-induced cell death, PI staining and FACS
Type: cell-based, human
Conditions: relatively high concentrations; data not shown

Nc1nc(F)nc2c1ncn2[C@@H]1O[C@H](CO)[C@@H](O)[C@@H]1O [fludarabine]
cell killing effect on PBMCs isolated from CLL patients: only a weak cell killing effect
